# Literature values, collected in PubChem BioAssay AID1259409 (Chemical Carcinogenesis Research Information System (CCRIS), 2018).
# Test system: rodent chemically induced tumor inhibition, incidence and multiplicity
# Experiment: CCRIS tumor inhibitor studies
smiles,measurement,setting,value
CCO,"tumour outcome (control, treated, inhibition, significance)","Carcinogen: ETHYL CARBAMATE, 51-79-6, Dose [Inhibitor]: 0, 20% SIMULTANEOUSLY WITH CARCINOGEN 1/D FOR WK (STUDY DURATION: 16 WK), Route [Inhibitor]: GAVAGE, Species: MOUSE, Strain/Sex: NMRI/FEMALE, Target Tissue: Type of Lesion: LUNG: ADENOMA, Dose [Carcinogen]: 180 MG/KG IN 20% ETHANOL 1/D FOR 8 WK (CONTROL GROUP ADMINISTERED CARCINOGEN IN WATER), Promoter: NONE USED","100%, 100%, 0%, not significant"
same,"tumour outcome (control, treated, inhibition, significance)","Carcinogen: ETHYL CARBAMATE, 57-79-6, Dose [Inhibitor]: 0, 12% ADMINISTERED WITH CARCINOGEN IN DRINKING WATER FOR 41 WK (STUDY DURATION: 41 WK), Route [Inhibitor]: ORAL, Species: MOUSE, Strain/Sex: C3H/MALE, Target Tissue: Type of Lesion: LIVER: HEMANGIOENDOTHELIOMA, Dose [Carcinogen]: 10 MG/KG IN DRINKING WATER FOR 41 WK, Promoter: NONE USED","5%, 5%, 0%, not significant"
same,"tumour outcome (control, treated, inhibition, significance)","Carcinogen: N-METHYL-N'-NITRO-N-NITROSOGUANIDINE, 70-25-7, Dose [Inhibitor]: 0, 10% IN DRINKING WATER FOR 51 WK BEGINNING 1 WK POST CARCINOGEN DOSE, 5% NACL INCLUDED IN THE DIET OF TREATED RATS (ST, Route [Inhibitor]: ORAL, Species: RAT, Strain/Sex: F344/MALE, Target Tissue: Type of Lesion: FORESTOMACH: CARCINOMA IN SITU, Dose [Carcinogen]: 150 MG/KG BW ONCE, Promoter: CATECHOL, 120-89-9","3/15 (20%), 5/14 (36%), -80%, not significant"
same,"tumour outcome (control, treated, inhibition, significance)","Carcinogen: N-METHYL-N'-NITRO-N-NITROSOGUANIDINE, 70-25-7, Dose [Inhibitor]: 0, 10% IN DRINKING WATER FOR 51 WK BEGINNING 1 WK POST CARCINOGEN DOSE, 5% NACL INCLUDED IN THE DIET OF TREATED RATS (ST, Route [Inhibitor]: ORAL, Species: RAT, Strain/Sex: F344/MALE, Target Tissue: Type of Lesion: FORESTOMACH: PAPILLOMA, Dose [Carcinogen]: 150 MG/KG BW ONCE, Promoter: CATECHOL, 120-80-9","15/15 (100%), 12/14 (86%), 14%, not significant"
same,"tumour outcome (control, treated, inhibition, significance)","Carcinogen: N-METHYL-N'-NITRO-N-NITROSOGUANIDINE, 70-25-7, Dose [Inhibitor]: 0, 10% IN DRINKING WATER FOR 51 WK BEGINNING 1 WK POST CARCINOGEN DOSE, 5% NACL INCLUDED IN THE DIET OF TREATED RATS (ST, Route [Inhibitor]: ORAL, Species: RAT, Strain/Sex: F344/MALE, Target Tissue: Type of Lesion: FORESTOMACH: SQUAMOUS CELL CARCINOMA, Dose [Carcinogen]: 150 MG/KG BW ONCE, Promoter: CATECHOL, 120-80-9","15/15 (100%), 8/14 (57%), 43%, p<0.01"
same,"tumour outcome (control, treated, inhibition, significance)","Carcinogen: N-METHYL-N'-NITRO-N-NITROSOGUANIDINE, 70-25-7, Dose [Inhibitor]: 0, 10% IN DRINKING WATER FOR 51 WK BEGINNING 1 WK POST CARCINOGEN DOSE, 5% NACL INCLUDED IN THE DIET OF TREATED RATS (ST, Route [Inhibitor]: ORAL, Species: RAT, Strain/Sex: F344/MALE, Target Tissue: Type of Lesion: GLANDULAR STOMACH: ADENOCARCINOMA, Dose [Carcinogen]: 150 MG/KG BW ONCE, Promoter: CATECHOL, 120-80-9","11/15 (73%), 4/14 (29%), 60%, p<0.02"
same,"tumour outcome (control, treated, inhibition, significance)","Carcinogen: N-METHYL-N'-NITRO-N-NITROSOGUANIDINE, 70-25-7, Dose [Inhibitor]: 0, 10% IN DRINKING WATER FOR 51 WK BEGINNING 1 WK POST CARCINOGEN DOSE, 5% NACL INCLUDED IN THE DIET OF TREATED RATS (ST, Route [Inhibitor]: ORAL, Species: RAT, Strain/Sex: F344/MALE, Target Tissue: Type of Lesion: GLANDULAR STOMACH: ADENOMA, Dose [Carcinogen]: 150 MG/KG BW ONCE, Promoter: CATECHOL, 120-80-9","15/15 (100%), 13/14 (93%), 7%, not significant"
same,"tumour outcome (control, treated, inhibition, significance)","Carcinogen: N-NITROSOMETHYLBENZYLAMINE, 937-40-6, Dose [Inhibitor]: 1-2% IN LIQUID DIET ON DAY 1 AND INCREASING TO 7% BY DAY 8 OF AGENT TREATMENT AND CONTINUING FOR 12 WK (STUDY DURATION:, Route [Inhibitor]: ORAL, Species: RAT, Strain/Sex: SPRAGUE-DAWLEY/MALE, Target Tissue: Type of Lesion: ESOPHAGUS: PAPILLOMA, Dose [Carcinogen]: 2.5 MG/KG 3/WK FOR 3 WK BEGINNING THE LAST 3 WK OF AGENT TREATMENT, Promoter: NONE USED","10/26 (38%), 3/13 (23%), 39%, p<0.01"
same,"tumour outcome (control, treated, inhibition, significance)","Carcinogen: URETHANE, 51-79-6, Dose [Inhibitor]: 5% (VOL/VOL) IN DRINKING WATER CONCURRENTLY WITH CARCINOGEN FOR 12 WK (STUDY DURATION: 12 WK), Route [Inhibitor]: ORAL, Species: MOUSE, Strain/Sex: A/PH/FEMALE, Target Tissue: Type of Lesion: LUNG: ADENOMA, Dose [Carcinogen]: 200 PPM IN DRINKING WATER FOR 12 WK, Promoter: NONE USED","100%, 100%, 0%, not calculated"
same,"tumour outcome (control, treated, inhibition, significance)","Carcinogen: URETHANE, 51-79-6, Dose [Inhibitor]: 5% (VOL/VOL) IN DRINKING WATER CONCURRENTLY WITH CARCINOGEN FOR 12 WK (STUDY DURATION: 12 WK), Route [Inhibitor]: ORAL, Species: MOUSE, Strain/Sex: A/PH/FEMALE, Target Tissue: Type of Lesion: LUNG: ADENOMA, Dose [Carcinogen]: 500 PPM IN DRINKING WATER FOR 12 WK, Promoter: NONE USED","100%, 100%, 0%, not calculated"
same,"tumour outcome (control, treated, inhibition, significance)","Carcinogen: URETHANE, 51-79-6, Dose [Inhibitor]: 5% (VOL/VOL) IN DRINKING WATER CONCURRENTLY WITH CARCINOGEN FOR 12 WK (STUDY DURATION: 12 WK), Route [Inhibitor]: ORAL, Species: MOUSE, Strain/Sex: A/PH/FEMALE, Target Tissue: Type of Lesion: LUNG: ADENOMA, Dose [Carcinogen]: 1000 PPM IN DRINKING WATER FOR 12 WK, Promoter: NONE USED","100%, 100%, 0%, not calculated"
same,"tumour outcome (control, treated, inhibition, significance)","Carcinogen: URETHANE, 51-79-6, Dose [Inhibitor]: 10% (VOL/VOL) IN DRINKING WATER CONCURRENTLY WITH CARCINOGEN FOR 12 WK (STUDY DURATION: 12 WK), Route [Inhibitor]: ORAL, Species: MOUSE, Strain/Sex: A/PH/FEMALE, Target Tissue: Type of Lesion: LUNG: ADENOMA, Dose [Carcinogen]: 200 PPM IN DRINKING WATER FOR 12 WK, Promoter: NONE USED","100%, 80%, 20%, p<0.001"
same,"tumour outcome (control, treated, inhibition, significance)","Carcinogen: URETHANE, 51-79-6, Dose [Inhibitor]: 10% (VOL/VOL) IN DRINKING WATER CONCURRENTLY WITH CARCINOGEN FOR 12 WK (STUDY DURATION: 12 WK), Route [Inhibitor]: ORAL, Species: MOUSE, Strain/Sex: A/PH/FEMALE, Target Tissue: Type of Lesion: LUNG: ADENOMA, Dose [Carcinogen]: 500 PPM IN DRINKING WATER FOR 12 WK, Promoter: NONE USED","100%, 100%, 0%, not calculated"
same,"tumour outcome (control, treated, inhibition, significance)","Carcinogen: URETHANE, 51-79-6, Dose [Inhibitor]: 10% (VOL/VOL) IN DRINKING WATER CONCURRENTLY WITH CARCINOGEN FOR 12 WK (STUDY DURATION: 12 WK), Route [Inhibitor]: ORAL, Species: MOUSE, Strain/Sex: A/PH/FEMALE, Target Tissue: Type of Lesion: LUNG: ADENOMA, Dose [Carcinogen]: 1000 PPM IN DRINKING WATER FOR 12 WK, Promoter: NONE USED","100%, 100%, 0%, not calculated"
same,"tumour outcome (control, treated, inhibition, significance)","Carcinogen: URETHANE, 51-79-6, Dose [Inhibitor]: 20% (VOL/VOL) IN DRINKING WATER CONCURRENTLY WITH CARCINOGEN FOR 12 WK (STUDY DURATION: 12 WK), Route [Inhibitor]: ORAL, Species: MOUSE, Strain/Sex: A/PH/FEMALE, Target Tissue: Type of Lesion: LUNG: ADENOMA, Dose [Carcinogen]: 200 PPM IN DRINKING WATER FOR 12 WK, Promoter: NONE USED","100%, 100%, 0%, not calculated"
same,"tumour outcome (control, treated, inhibition, significance)","Carcinogen: URETHANE, 51-79-6, Dose [Inhibitor]: 20% (VOL/VOL) IN DRINKING WATER CONCURRENTLY WITH CARCINOGEN FOR 12 WK (STUDY DURATION: 12 WK), Route [Inhibitor]: ORAL, Species: MOUSE, Strain/Sex: A/PH/FEMALE, Target Tissue: Type of Lesion: LUNG: ADENOMA, Dose [Carcinogen]: 500 PPM IN DRINKING WATER FOR 12 WK, Promoter: NONE USED","100%, 100%, 0%, not calculated"
same,"tumour outcome (control, treated, inhibition, significance)","Carcinogen: URETHANE, 51-79-6, Dose [Inhibitor]: 20% (VOL/VOL) IN DRINKING WATER CONCURRENTLY WITH CARCINOGEN FOR 12 WK (STUDY DURATION: 12 WK), Route [Inhibitor]: ORAL, Species: MOUSE, Strain/Sex: A/PH/FEMALE, Target Tissue: Type of Lesion: LUNG: ADENOMA, Dose [Carcinogen]: 1000 PPM IN DRINKING WATER FOR 12 WK, Promoter: NONE USED","100%, 100%, 0%, not calculated"
